# Test results reported in PubChem BioAssay (NCI).
#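 Abbreviation: GI50, concentration required for 50% inhibition of growth. At the TGI there is no net growth.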
# Tests used:
# Experiment in all cases: NCI tumour cell line growth inhibition, 384-well format
# [1] = test system: SN12C renal
# [2] = test system: MDA-MB-435 melanoma
# [3] = test system: NCI-H322M lung
# [4] = test system: U251 glioblastoma
# [5] = test system: BT-549 breast
# [6] = test system: DU-145 prostate
# [7] = test system: MDA-MB-231 breast
# [8] = test system: RPMI-8226 leukemia
# [9] = test system: UACC-62 melanoma
# [10] = test system: RXF 393 renal
# [11] = test system: HL-60(TB) leukemia
# [12] = test system: K-562 leukemia
# [13] = test system: SF-295 CNS
# [14] = test system: M14 melanoma
# [15] = test system: HT29 colon
# [16] = test system: OVCAR-3 ovarian
# [17] = test system: UO-31 renal
# [18] = test system: UACC-257 melanoma
# [19] = test system: ACHN renal
# [20] = test system: PC-3 prostate
# [21] = test system: CCRF-CEM leukemia
# [22] = test system: MDA-MB-468 breast
# [23] = test system: NCI-H23 lung
# [24] = test system: T-47D breast
# [25] = test system: NCI-H226 lung
# [26] = test system: OVCAR-5 ovarian
# [27] = test system: OVCAR-8 ovarian
# [28] = test system: HCT-116 colon
# [29] = test system: KM12 colon
# [30] = test system: NCI-H522 lung
# [31] = test system: IGROV1 ovarian
# [32] = test system: SW-620 colon
# [33] = test system: A498 renal
# [34] = test system: OVCAR-4 ovarian
# [35] = test system: SR leukemia
# [36] = test system: HCC-2998 colon
# [37] = test system: MCF7 breast
# [38] = test system: EKVX NSCLC
# [39] = test system: SF-539 CNS
# [40] = test system: MOLT-4 leukemia
# [41] = test system: SK-OV-3 ovarian
# [42] = test system: SNB-19 CNS
# [43] = test system: 786-0 renal
# [44] = test system: NCI/ADR-RES ovarian
# [45] = test system: HS 578T breast
# [46] = test system: HCT-15 colon
# [47] = test system: SK-MEL-2 melanoma
smiles,measurement,setting,value
C[C@H](N)C(=O)N1C[C@H](CCCB(O)O)[C@](N)(C(=O)O)C1,GI50,[1],> 100 µM
same,TGI,[1],> 100 µM
same,GI50,[2],> 100 µM
same,TGI,[2],> 100 µM
same,GI50,[3],> 100 µM
same,TGI,[3],> 100 µM
same,GI50,[4],> 100 µM
same,TGI,[4],> 100 µM
same,GI50,[5],> 100 µM
same,TGI,[5],> 100 µM
same,GI50,[6],> 100 µM
same,TGI,[6],> 100 µM
same,GI50,[7],> 100 µM
same,TGI,[7],> 100 µM
same,GI50,[8],> 100 µM
same,TGI,[8],> 100 µM
same,GI50,[9],> 100 µM
same,TGI,[9],> 100 µM
same,GI50,[10],> 100 µM
same,TGI,[10],> 100 µM
same,GI50,[11],> 87.2 µM
same,TGI,[11],> 100 µM
same,GI50,[12],> 100 µM
same,TGI,[12],> 100 µM
same,GI50,[13],> 100 µM
same,TGI,[13],> 100 µM
same,GI50,[14],> 86 µM
same,TGI,[14],> 100 µM
same,GI50,[15],> 100 µM
same,TGI,[15],> 100 µM
same,GI50,[16],> 100 µM
same,TGI,[16],> 100 µM
same,GI50,[17],> 100 µM
same,TGI,[17],> 100 µM
same,GI50,[18],> 100 µM
same,TGI,[18],> 100 µM
same,GI50,[19],> 100 µM
same,TGI,[19],> 100 µM
same,GI50,[20],> 100 µM
same,TGI,[20],> 100 µM
same,GI50,[21],> 100 µM
same,TGI,[21],> 100 µM
same,GI50,[22],> 100 µM
same,TGI,[22],> 100 µM
same,GI50,[23],> 100 µM
same,TGI,[23],> 100 µM
same,GI50,[24],> 100 µM
same,TGI,[24],> 100 µM
same,GI50,[25],> 100 µM
same,TGI,[25],> 100 µM
same,GI50,[26],> 100 µM
same,TGI,[26],> 100 µM
same,GI50,[27],> 100 µM
same,TGI,[27],> 100 µM
same,GI50,[28],> 100 µM
same,TGI,[28],> 100 µM
same,GI50,[29],> 100 µM
same,TGI,[29],> 100 µM
same,GI50,[30],> 100 µM
same,TGI,[30],> 100 µM
same,GI50,[31],> 100 µM
same,TGI,[31],> 100 µM
same,GI50,[32],> 100 µM
same,TGI,[32],> 100 µM
same,GI50,[33],> 100 µM
same,TGI,[33],> 100 µM
same,GI50,[34],> 100 µM
same,TGI,[34],> 100 µM
same,GI50,[35],> 100 µM
same,TGI,[35],> 100 µM
same,GI50,[36],> 100 µM
same,TGI,[36],> 100 µM
same,GI50,[37],> 100 µM
same,TGI,[37],> 100 µM
same,GI50,[38],> 100 µM
same,TGI,[38],> 100 µM
same,GI50,[39],> 100 µM
same,TGI,[39],> 100 µM
same,GI50,[40],> 100 µM
same,TGI,[40],> 100 µM
same,GI50,[41],> 100 µM
same,TGI,[41],> 100 µM
same,GI50,[42],> 100 µM
same,TGI,[42],> 100 µM
same,GI50,[43],> 100 µM
same,TGI,[43],> 100 µM
same,GI50,[44],> 100 µM
same,TGI,[44],> 100 µM
same,GI50,[45],> 100 µM
same,TGI,[45],> 100 µM
same,GI50,[46],> 100 µM
same,TGI,[46],> 100 µM
same,GI50,[47],> 100 µM
same,TGI,[47],> 100 µM
